Experimental data published in patent US10597620B2, “Taste modifiers comprising a chlorogenic acid” (GIVAUDAN SA, priority 2001, dated 2020).

Experiment: Flavorist panel evaluation of aged artificially sweetened beverage with added chlorogenic acid
Format: in vivo
Details: final concentration 0.003% w/v; compared to untreated beverage; six member panel of trained flavorists
Protocol: An artificially sweetened beverage is prepared by mixing 1.4 g aspartame, 0.9 g acesulfame K, 6 ml sodium benzoate (25%^w/v in water), 1.3 ml phosphoric acid (85%^w/v), and 0.5 ml citric acid (50%^w/v in water). The volume of the mixture is adjusted to 1000 ml with water. The beverage mixture is aged for three weeks at 34° C.
A 2.8%^w/w solution of a commercially available synthetic chlorogenic acid (>95% pure (1,3,4,5-tetrahydroxy-cyclohexanecarboxylic acid 3-[3,4-dihydroxycinnamate]), Sigma Chemical Co., St. Louis, Mo.), in water, pH 5.6, is added to a portion of the aged beverage to a final concentration of 0.003%^w/v. The beverage containing chlorogenic acid is evaluated and compared to the untreated beverage by a six member panel of trained flavorists. The beverage containing the commercial chlorogenic acid is judged by the panel to display markedly less of the metallic, slightly bitter aftertaste found in the aged artificially sweetened beverage.
To another portion of the artificially sweetened beverage prepared as described in the first paragraph of Example 6, an aqueous solution of chlorogenic acid from the powdered extract of green coffee beans is added to a final concentration of 0.003%^w/v chlorogenic acid. This beverage is evaluated by the same flavorist panel as described in Example 6. […]

O=C(C=Cc1ccc(O)c(O)c1)OC1CC(O)(C(=O)O)CC(O)C1O (stereo not shown) [synthetic chlorogenic acid, 1,3,4,5-tetrahydroxy-cyclohexanecarboxylic acid 3-[3,4-dihydroxycinnamate]]
metallic, slightly bitter aftertaste found in the aged artificially sweetened beverage: markedly less
